Reference: patent US12180146B2, “Antihypertensive polyol compound and derivative thereof” (TAO PHARMACEUTICAL (SUZHOU) CO., LTD, priority 2020, dated 2024)
Where a name gives a salt, the structure may show the parent alone.

System: spontaneously hypertensive rats (SHR)
Assay: Antihypertensive activity test: blood pressure and heart rate of spontaneously hypertensive rats (SHR)
Format: in vivo, rat
Conditions: 200 mg/kg; for SHR heart rate, time after administration 0 h / SHR heart rate, time after administration 1 h / SHR heart rate, time after administration 2 h / SHR heart rate, time after administration 3 h / SHR heart rate, time after administration 4 h / SHR heart rate, time after administration 5 h / SHR heart rate, time after administration 6 h: N = 8; for Blood pressure (SBP, mmHg) After administration / Heart rate (beat/min) After administration: after administration (6 h M ± SD); for Heart rate Difference (beat/min): after administration minus baseline (6 h); for Blood pressure Difference mmHg: baseline minus after administration (6 h); for Blood pressure (SBP, mmHg) Baseline / Heart rate (beat/min) Baseline: before administration, M ± SD
Protocol: Tested Drugs: Compounds of the Invention. The dosage of all compound was uniformly set to 200 mg/kg.
In the test, changes in the blood pressure before and after the administration were detected, and compared with the basic value, a reduction of SBP ≥20 mmHg after administration was judged as effective antihypertensive effects; and at the same time, changes in the heart rate before and after the administration were detected.
Heart rate was expressed as mean±standard deviation (x±s). The changes of heart rate before and after the administration were compared by using Two-sample equal variance paired t test, and P<0.05 was regarded as the standard of statistically significant difference.

## COP(=O)(OC)OCC(O)c1ccccc1 (centres unmarked) [Compound 20]
0 h, n = 8
  SHR blood pressure (SBP), time after administration 0 h: 192 ± 7.98 mmHg
  SBP Difference before and after administration, 1 h: 6 mmHg
  SBP Difference before and after administration, 2 h: 10 mmHg
  SBP Difference before and after administration, 3 h: 3 mmHg
  SBP Difference before and after administration, 4 h: 9 mmHg
  SBP Difference before and after administration, 5 h: 7 mmHg
  SBP Difference before and after administration, 6 h: 2 mmHg
N = 8
  SHR blood pressure (SBP), time after administration 1 h: 186 ± 9.55 mmHg
  SHR blood pressure (SBP), time after administration 2 h: 182 ± 7.36 mmHg
  SHR blood pressure (SBP), time after administration 3 h: 189 ± 4.07 mmHg
  SHR blood pressure (SBP), time after administration 4 h: 183 ± 7.15 mmHg
  SHR blood pressure (SBP), time after administration 5 h: 185 ± 5.61 mmHg
  SHR blood pressure (SBP), time after administration 6 h: 190 ± 6.66 mmHg

## COCCc1ccc(OCC(O)CNC(C)C)cc1 (centres unmarked) [Metoprolol Hydrochloride, reference compound]
  effect on heart rate while lowering blood pressure: significantly slow down the heart rate
  time after administration of lowest value of blood pressure: 3 h
  Heart rate Difference before and after administration, 1 h: −44 beat/min
  SBP Difference before and after administration, 1 h: 20 mmHg
  SHR heart rate, time after administration 1 h: 283 ± 24.4 beat/min
  Heart rate Difference before and after administration, 2 h: −45 beat/min
  SBP Difference before and after administration, 2 h: 22 mmHg
  SHR heart rate, time after administration 2 h: 283 ± 23.1 beat/min
  Heart rate Difference before and after administration, 3 h: −49 beat/min
  SBP Difference before and after administration, 3 h: 25 mmHg
  SHR heart rate, time after administration 3 h: 279 ± 22.3 beat/min
  Heart rate Difference before and after administration, 4 h: −48 beat/min
  SBP Difference before and after administration, 4 h: 24 mmHg
  SHR heart rate, time after administration 4 h: 280 ± 23.0 beat/min
  Heart rate Difference before and after administration, 5 h: −43 beat/min
  SBP Difference before and after administration, 5 h: 23 mmHg
  SHR heart rate, time after administration 5 h: 285 ± 24.0 beat/min
  Heart rate Difference before and after administration, 6 h: −40 beat/min
  SBP Difference before and after administration, 6 h: 18 mmHg
  SHR heart rate, time after administration 6 h: 288 ± 28.5 beat/min
  Heart rate Difference (beat/min): −46 beat/min
  Blood pressure Difference mmHg: 23 mmHg
0 h
  SHR heart rate, time after administration 0 h: 328 ± 24.5 beat/min
N = 8
  SHR blood pressure (SBP), time after administration 1 h: 166 ± 6.39 mmHg
  SHR blood pressure (SBP), time after administration 2 h: 164 ± 4.50 mmHg
  SHR blood pressure (SBP), time after administration 3 h: 161 ± 9.15 mmHg
  SHR blood pressure (SBP), time after administration 4 h: 163 ± 13.7 mmHg
  SHR blood pressure (SBP), time after administration 5 h: 164 ± 15.9 mmHg
  SHR blood pressure (SBP), time after administration 6 h: 168 ± 8.78 mmHg
  Blood pressure (SBP, mmHg) After administration: 164 ± 7.85 mmHg
  Heart rate (beat/min) After administration: 282 ± 21.3 beat/min
  Blood pressure (SBP, mmHg) Baseline: 186 ± 7.87 mmHg
  Heart rate (beat/min) Baseline: 328 ± 24.5 beat/min
6 hours after administration
  average heart rate slowed by: 46 beats/min
At most recorded time points
  blood pressure reduction after administration: more than 20 mmHg

## COc1ccc([C@@H](O)[C@H](C)O)cc1Cl [Compound 14]
  SBP Difference before and after administration, 1 h: 3 mmHg
  SBP Difference before and after administration, 2 h: 7 mmHg
  SBP Difference before and after administration, 3 h: 8 mmHg
  SBP Difference before and after administration, 4 h: 5 mmHg
  SBP Difference before and after administration, 5 h: 1 mmHg
  SBP Difference before and after administration, 6 h: −1 mmHg
N = 8
  SHR blood pressure (SBP), time after administration 1 h: 182 ± 11.6 mmHg
  SHR blood pressure (SBP), time after administration 2 h: 178 ± 10.8 mmHg
  SHR blood pressure (SBP), time after administration 3 h: 177 ± 10.9 mmHg
  SHR blood pressure (SBP), time after administration 4 h: 18 ± 15.80 mmHg
  SHR blood pressure (SBP), time after administration 5 h: 184 ± 16.0 mmHg
  SHR blood pressure (SBP), time after administration 6 h: 186 ± 17.7 mmHg

## CC(C)(O)[C@H](O)[C@H](O)c1cccc2[nH]ccc12 [Compound 21]
  SBP Difference before and after administration, 1 h: 11 mmHg
  SBP Difference before and after administration, 2 h: 13 mmHg
  SBP Difference before and after administration, 3 h: 12 mmHg
  SBP Difference before and after administration, 4 h: 17 mmHg
  SBP Difference before and after administration, 5 h: 13 mmHg
  SBP Difference before and after administration, 6 h: 11 mmHg
N = 8
  SHR blood pressure (SBP), time after administration 1 h: 184 ± 10.6 mmHg
  SHR blood pressure (SBP), time after administration 2 h: 182 ± 10.4 mmHg
  SHR blood pressure (SBP), time after administration 3 h: 183 ± 9.90 mmHg
  SHR blood pressure (SBP), time after administration 4 h: 178 ± 6.61 mmHg
  SHR blood pressure (SBP), time after administration 5 h: 182 ± 7.25 mmHg
  SHR blood pressure (SBP), time after administration 6 h: 184 ± 12.1 mmHg

## Cc1cccc(C(O)CO)c1 (centres unmarked) [Compound 3]
  SBP Difference before and after administration, 1 h: 18 mmHg
  SBP Difference before and after administration, 2 h: 10 mmHg
  SBP Difference before and after administration, 3 h: 11 mmHg
  SBP Difference before and after administration, 4 h: 8 mmHg
  SBP Difference before and after administration, 5 h: 2 mmHg
  SBP Difference before and after administration, 6 h: 2 mmHg
N = 8
  SHR blood pressure (SBP), time after administration 1 h: 180 ± 11.6 mmHg
  SHR blood pressure (SBP), time after administration 2 h: 178 ± 10.9 mmHg
  SHR blood pressure (SBP), time after administration 3 h: 177 ± 13.9 mmHg
  SHR blood pressure (SBP), time after administration 4 h: 180 ± 15.80 mmHg
  SHR blood pressure (SBP), time after administration 5 h: 186 ± 16.0 mmHg
  SHR blood pressure (SBP), time after administration 6 h: 186 ± 17.7 mmHg

## Cc1ccc(C(O)CO)cc1 (centres unmarked) [Compound 12]
0 h
  SHR heart rate, time after administration 0 h: 333 ± 44.0 beat/min
  Heart rate Difference before and after administration, 1 h: −5 beat/min
  SBP Difference before and after administration, 1 h: 3 mmHg
  SHR heart rate, time after administration 1 h: 328 ± 47.6 beat/min
  Heart rate Difference before and after administration, 2 h: 8 beat/min
  SBP Difference before and after administration, 2 h: 5 mmHg
  SHR heart rate, time after administration 2 h: 342 ± 46.9 beat/min
  Heart rate Difference before and after administration, 3 h: 15 beat/min
  SBP Difference before and after administration, 3 h: 4 mmHg
  SHR heart rate, time after administration 3 h: 348 ± 53.2 beat/min
  Heart rate Difference before and after administration, 4 h: 3 beat/min
  SBP Difference before and after administration, 4 h: 9 mmHg
  SHR heart rate, time after administration 4 h: 336 ± 54.5 beat/min
  Heart rate Difference before and after administration, 5 h: −3 beat/min
  SBP Difference before and after administration, 5 h: 5 mmHg
  SHR heart rate, time after administration 5 h: 331 ± 51.0 beat/min
  Heart rate Difference before and after administration, 6 h: 3 beat/min
  SBP Difference before and after administration, 6 h: 3 mmHg
  SHR heart rate, time after administration 6 h: 336 ± 52.7 beat/min
  Heart rate Difference (beat/min): 3 beat/min
  Blood pressure Difference mmHg: 6 mmHg
N = 8
  SHR blood pressure (SBP), time after administration 1 h: 184 ± 10.6 mmHg
  SHR blood pressure (SBP), time after administration 2 h: 182 ± 10.4 mmHg
  SHR blood pressure (SBP), time after administration 3 h: 183 ± 9.90 mmHg
  SHR blood pressure (SBP), time after administration 4 h: 178 ± 6.61 mmHg
  SHR blood pressure (SBP), time after administration 5 h: 182 ± 7.25 mmHg
  SHR blood pressure (SBP), time after administration 6 h: 184 ± 12.1 mmHg
  Blood pressure (SBP, mmHg) After administration: 181 ± 8.80 mmHg
  Heart rate (beat/min) After administration: 336 ± 49.5 beat/min
  Blood pressure (SBP, mmHg) Baseline: 187 ± 11.9 mmHg
  Heart rate (beat/min) Baseline: 333 ± 44.0 beat/min

## CCc1cccc([C@@H](O)CO)c1 [Compound 1-1]
0 h
  SBP Difference before and after administration, 0 h: 0 mmHg
  SBP Difference before and after administration, 1 h: 14 mmHg
  SBP Difference before and after administration, 2 h: 22 mmHg
  SBP Difference before and after administration, 3 h: 29 mmHg
  SBP Difference before and after administration, 4 h: 24 mmHg
  SBP Difference before and after administration, 5 h: 20 mmHg
  SBP Difference before and after administration, 6 h: 14 mmHg
N = 8
  SHR blood pressure (SBP), time after administration 1 h: 176 ± 12.4 mmHg
  SHR blood pressure (SBP), time after administration 2 h: 168 ± 12.0 mmHg
  SHR blood pressure (SBP), time after administration 3 h: 161 ± 13.1 mmHg
  SHR blood pressure (SBP), time after administration 4 h: 166 ± 11.4 mmHg
  SHR blood pressure (SBP), time after administration 5 h: 170 ± 11.9 mmHg
  SHR blood pressure (SBP), time after administration 6 h: 186 ± 10.1 mmHg
